EC50 data for one compound are collected here from publication PMC8536830 (Current Biology, 2021).

Holding throughout (type): cell-based, C. elegans
In one assay the target is T1, LGC-50 Δ363-397 (Caenorhabditis elegans, UniProt P41849, DEL363-397).
T1 construct: Plasmid: KSM: lgc-50 (cDNA, Δ363 - 397); expressed in transfected cells; host or cells: Xenopus laevis oocytes injected with cRNA (plasmid pJML138)
Put plainly: Two-electrode voltage clamp, 5-HT evoked dose response, LGC-50 deletion mutant Δ363-397. The method, then:
(§1) To identify such domains, we tested the effects of deletion mutations in the LGC-50 M3/4 loop (Figure 5A).
(§2) Defolliculated Xenopus laevis oocytes were obtained from EcoCyte Bioscience (Dortmund, Germany) and maintained in ND96 (in mM: 96 NaCl, 1 MgCl2, 5 HEPES, 1.8 CaCl2, 2 KCl) solution at 16°C for 3-5 days.
(§3) 5'-capped cRNA was synthesized in vitro using the T3 mMessage mMachine transcription kit according to manufacturer’s protocol (Thermo Fischer Scientific, CA, USA). RNA was then purified using the GeneJET RNA purification kit (Thermo Fischer Scientific, CA, USA) prior to cRNA injection. […]
(§4) Two-electrode voltage clamp recordings were carried out using the Robocyte2 recording system or a manual TEVC set up, using an OC-725D amplifier (Multi Channel Systems, Reutlingen, Germany) and paired with a custom-made recording chamber and agar bridges from reference and bath electrodes. […] Data was recorded using WinWCP or RoboCyte2 control software, manual data was filtered at 10 Hz.
(§5) Dose response curves were calculated from the peak current during a 10 s agonist stimulation in ND96 solution, with a 60 s ND96 wash in between doses. […] Normalized dose response data was fitted to a nonlinear curve using a four parameters variable slope and the EC50 and Hill slope was calculated. […] Kinetic measurements were calculated from a 60 s agonist perfusion. […]
(Two-electrode voltage clamp holds a large cell at a set potential and records current.)

A further assay addresses T2, LGC-50 Δ363-379 (Caenorhabditis elegans, UniProt P41849, DEL363-379).
T2 construct: Plasmid: KSM: lgc-50 (cDNA, Δ363-379); expressed in transfected cells; host or cells: Xenopus laevis oocytes injected with cRNA (plasmid pIH142)
Put plainly: Two-electrode voltage clamp, 5-HT evoked dose response, LGC-50 deletion mutant Δ363-379. How it is done:
as §1, §2, §3, §4, §5

Assay [1] concerns the target T3, LGC-50 S335A, T348A, S353A (Caenorhabditis elegans, UniProt P41849, S335A/S353A/T348A).
T3 construct: Plasmid: KSM: lgc-50 (cDNA, S335A, T348A, S353A); expressed in transfected cells; host or cells: Xenopus laevis oocytes injected with cRNA (plasmid pIH128)
Put plainly: Two-electrode voltage clamp, 5-HT evoked dose response, LGC-50 phospho-dead mutant.
Description: (§6) In addition to this region, we also investigated three upstream predicted phosphorylation sites. Phosphorylation of the M3/4 loop has previously been implicated in the trafficking and cell surface recycling of GABAA receptors.[23]^,[24] The first site in the M3/4 loop of LGC-50, S335, is predicted to be a cdc2 site, and T348 and S353 are predicted protein kinase C (PKC) or PKA sites (Table S2).[25]^,[26] We introduced both phosphorylation-dead alanine mutations and phosphomimic aspartate mutations into these sites to assess their effect on receptor trafficking. […]
as §4, §5

Assay [2] deals with T4, LGC-50 S335D, T348D, S353A (Caenorhabditis elegans, UniProt P41849, S335D/S353A/).
T4 construct: Plasmid: KSM: lgc-50 (cDNA, S335D, T348A, S353A); expressed in transfected cells; host or cells: Xenopus laevis oocytes injected with cRNA (probably plasmid pIH134)
Put plainly: Two-electrode voltage clamp, 5-HT evoked dose response, LGC-50 phosphomimic mutant.
Description: as §6, §4, §5

T3 sequence (P41849 20-491 S335A/T348A/S353A): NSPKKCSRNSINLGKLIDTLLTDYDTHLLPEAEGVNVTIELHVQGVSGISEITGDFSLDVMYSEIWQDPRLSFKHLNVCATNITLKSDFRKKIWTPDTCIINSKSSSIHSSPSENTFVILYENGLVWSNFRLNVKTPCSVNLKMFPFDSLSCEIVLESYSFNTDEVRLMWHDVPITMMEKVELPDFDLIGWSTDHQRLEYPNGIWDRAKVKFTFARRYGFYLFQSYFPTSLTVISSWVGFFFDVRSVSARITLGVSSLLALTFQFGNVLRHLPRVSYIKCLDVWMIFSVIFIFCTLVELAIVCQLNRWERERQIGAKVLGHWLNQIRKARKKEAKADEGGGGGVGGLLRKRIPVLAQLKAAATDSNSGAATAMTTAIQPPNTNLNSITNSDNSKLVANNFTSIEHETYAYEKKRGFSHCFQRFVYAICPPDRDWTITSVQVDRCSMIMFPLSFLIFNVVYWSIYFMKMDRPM
T1 sequence (P41849 other isoform, or with tags, fused parts or gaps DEL363-397): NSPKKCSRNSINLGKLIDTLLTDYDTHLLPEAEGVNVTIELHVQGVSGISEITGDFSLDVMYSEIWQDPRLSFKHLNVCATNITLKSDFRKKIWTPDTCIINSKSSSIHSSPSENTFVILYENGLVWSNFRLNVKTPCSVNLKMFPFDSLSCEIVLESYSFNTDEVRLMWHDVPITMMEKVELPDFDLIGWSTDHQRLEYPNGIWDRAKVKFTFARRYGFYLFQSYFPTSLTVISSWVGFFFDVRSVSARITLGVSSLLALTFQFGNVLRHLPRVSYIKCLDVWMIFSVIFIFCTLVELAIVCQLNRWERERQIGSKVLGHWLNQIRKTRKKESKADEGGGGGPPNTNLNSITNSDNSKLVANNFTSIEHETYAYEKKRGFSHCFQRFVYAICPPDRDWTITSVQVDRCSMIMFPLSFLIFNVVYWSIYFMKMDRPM
T4 sequence (P41849 20-491 S335D/T348A/S353A): as the sequence (P41849 20-491 S335A/T348A/S353A) above, with A316D counted along it
T2 sequence (P41849 other isoform, or with tags, fused parts or gaps DEL363-379): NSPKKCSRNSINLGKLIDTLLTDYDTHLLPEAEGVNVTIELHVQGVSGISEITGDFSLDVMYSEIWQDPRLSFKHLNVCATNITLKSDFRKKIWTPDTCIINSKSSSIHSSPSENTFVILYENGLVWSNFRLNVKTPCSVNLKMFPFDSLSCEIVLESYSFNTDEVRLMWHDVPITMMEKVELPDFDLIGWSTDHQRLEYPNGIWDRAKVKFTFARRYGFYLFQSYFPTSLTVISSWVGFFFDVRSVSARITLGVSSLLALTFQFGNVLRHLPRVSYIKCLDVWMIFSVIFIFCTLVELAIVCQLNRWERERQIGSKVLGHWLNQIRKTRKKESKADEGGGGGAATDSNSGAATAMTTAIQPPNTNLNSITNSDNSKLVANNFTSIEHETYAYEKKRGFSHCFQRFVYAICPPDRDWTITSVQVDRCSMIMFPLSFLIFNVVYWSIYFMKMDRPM

For the compound `NCCc1c[nH]c2ccc(O)cc12` [5-HT, serotonin], the EC50 on LGC-50 Δ363-397 turned out to be 930 nM; at LGC-50 Δ363-379 it was 930 nM; in assay [1] it was 570 nM; in assay [2], 720 nM.

Broadly, the EC50 is the concentration needed to bring the measured effect to its halfway point.
